Assay results reported in PubChem BioAssay AID328 (DTP/NCI, 2004).
Where “and” joins values, the source holds several entries; their conditions need not be identical. Equal values may be shown once. Inconclusive results and toxic doses are left out.

System: BDF1 mice, P388 leukemia ip, median survival T/C
Assay: NCI In Vivo Anticancer Drug Screen. Data for tumor model P388 Leukemia (intraperitoneal) in B6D2F1 (BDF1) mice
Settings: endpoint: median survival time, higher = longer survival
Procedure, shortened: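 Mice carrying the transplantable tumour receive compound or vehicle. Survival is followed in each arm, and the treated measure is divided by the vehicle measure.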

[1] = dose: 200.0 mg/kg/injection, schedule: Q04DX003 (ip), vehicle: saline sonified
[2] = dose: 50.0 mg/kg/injection, schedule: Q01DX009 (ip), vehicle: saline with Tween-80
[3] = dose: 100.0 mg/kg/injection, schedule: Q01DX009 (ip), vehicle: saline with Tween-80
[4] = dose: 200.0 mg/kg/injection, schedule: Q01DX009 (ip), vehicle: saline with Tween-80
[5] = dose: 100.0 mg/kg/injection, schedule: Q04DX003 (ip), vehicle: saline
[6] = dose: 200.0 mg/kg/injection, schedule: Q04DX003 (ip), vehicle: saline
[7] = dose: 100.0 mg/kg/injection, schedule: Q04DX003 (ip), vehicle: saline with Tween-80
[8] = dose: 200.0 mg/kg/injection, schedule: Q04DX003 (ip), vehicle: saline with Tween-80
[9] = dose: 400.0 mg/kg/injection, schedule: Q04DX003 (ip), vehicle: saline with Tween-80
[10] = dose: 25.0 mg/kg/injection, schedule: Q01DX009 (ip), vehicle: saline with Tween-80
[11] = dose: 3.13 mg/kg/injection, schedule: Q01DX009 (ip), vehicle: saline
[12] = dose: 6.25 mg/kg/injection, schedule: Q01DX009 (ip), vehicle: saline
[13] = dose: 12.5 mg/kg/injection, schedule: Q04DX003 (ip), vehicle: saline
[14] = dose: 25.0 mg/kg/injection, schedule: Q04DX003 (ip), vehicle: saline
[15] = dose: 100.0 mg/kg/injection, schedule: Q01DX009 (ip), vehicle: Klucel (hydroxypropylcellulose) (HPC)
[16] = dose: 100.0 mg/kg/injection, schedule: Q04DX003 (ip), vehicle: Klucel (hydroxypropylcellulose) (HPC)
[17] = dose: 200.0 mg/kg/injection, schedule: Q01DX009 (ip), vehicle: Klucel (hydroxypropylcellulose) (HPC)
[18] = dose: 200.0 mg/kg/injection, schedule: Q04DX003 (ip), vehicle: Klucel (hydroxypropylcellulose) (HPC)
[19] = dose: 400.0 mg/kg/injection, schedule: Q04DX003 (ip), vehicle: Klucel (hydroxypropylcellulose) (HPC)

CCCCCCCCCCCCCCCCNc1cccc2ccccc12
T/C (dose: 100.0 mg/kg/injection, schedule: Q04DX003 (ip), vehicle: saline sonified): 86 % of control
T/C [1]: 104 % of control
T/C (dose: 400.0 mg/kg/injection, schedule: Q04DX003 (ip), vehicle: saline sonified): 95 % of control

Cc1cc(C(=O)NN)nn1CCO
T/C (dose: 87.5 mg/kg/injection, schedule: Q01DX009 (ip), vehicle: saline with Tween-80): 89 % of control
T/C (dose: 175.0 mg/kg/injection, schedule: Q01DX009 (ip), vehicle: saline with Tween-80): 88 % of control
T/C (dose: 350.0 mg/kg/injection, schedule: Q01DX009 (ip), vehicle: saline with Tween-80): 114 % of control

CC(=O)c1c(O)c(C)c(O)c2c1OC1=CC(=O)C(C(C)=O)C(=O)C12C (stereo unspecified)
T/C (dose: 5.0 mg/kg/injection, schedule: Q01DX009 (ip), vehicle: gum acacia): 100 % of control and 103 % of control
T/C (dose: 10.0 mg/kg/injection, schedule: Q01DX009 (ip), vehicle: gum acacia): 105 % of control and 108 % of control
T/C (dose: 20.0 mg/kg/injection, schedule: Q01DX009 (ip), vehicle: gum acacia): 107 % of control
T/C (dose: 35.0 mg/kg/injection, schedule: Q01DX010 (ip), vehicle: saline): 116 % of control
T/C (dose: 40.0 mg/kg/injection, schedule: Q01DX009 (ip), vehicle: gum acacia): 96 % of control and 105 % of control
T/C (dose: 53.0 mg/kg/injection, schedule: Q01DX010 (ip), vehicle: saline): 122 % of control
T/C (dose: 79.0 mg/kg/injection, schedule: Q01DX010 (ip), vehicle: saline): 122 % of control
T/C (dose: 80.0 mg/kg/injection, schedule: Q01DX009 (ip), vehicle: gum acacia): 103 % of control and 108 % of control

CC(C)(C)C(=O)C(Oc1ccc(Cl)cc1)n1cncn1 (stereo unspecified)
T/C [2]: 100 % of control
T/C [3]: 100 % of control
T/C [4]: 100 % of control

CC12CCC(C(N)C1=O)C2(C)C (stereo unspecified)
T/C (dose: 50.0 mg/kg/injection, schedule: Q01DX009 (ip), vehicle: saline): 107 % of control
T/C (dose: 100.0 mg/kg/injection, schedule: Q01DX009 (ip), vehicle: saline): 114 % of control
T/C [5]: 101 % of control
T/C (dose: 200.0 mg/kg/injection, schedule: Q01DX009 (ip), vehicle: saline): 86 % of control
T/C [6]: 104 % of control

O=C1c2c(O)ccc(O)c2C(=O)c2c(NCCOCCO)ccc(NCCOCCO)c21
T/C (dose: 25.0 mg/kg/injection, schedule: Q01DX005 (ip), vehicle: saline with Tween-80): 102 % of control
T/C (dose: 50.0 mg/kg/injection, schedule: Q01DX005 (ip), vehicle: saline with Tween-80): 100 % of control
T/C (dose: 100.0 mg/kg/injection, schedule: Q01DX005 (ip), vehicle: saline with Tween-80): 118 % of control
T/C (dose: 200.0 mg/kg/injection, schedule: Q01DX005 (ip), vehicle: saline with Tween-80): 109 % of control

Nc1c(Cl)cc(S(N)(=O)=O)cc1Cl
T/C [3]: 86 % of control
T/C [7]: 104 % of control
T/C [4]: 90 % of control
T/C [8]: 104 % of control
T/C [9]: 100 % of control

O=c1cc(-c2cccnc2)oc2c1ccc1ccccc12
T/C (dose: 12.5 mg/kg/injection, schedule: Q01DX009 (ip), vehicle: other): 89 % of control
T/C (dose: 25.0 mg/kg/injection, schedule: Q01DX009 (ip), vehicle: other): 91 % of control
T/C (dose: 50.0 mg/kg/injection, schedule: Q01DX009 (ip), vehicle: other): 95 % of control
T/C (dose: 100.0 mg/kg/injection, schedule: Q01DX009 (ip), vehicle: other): 91 % of control
T/C (dose: 200.0 mg/kg/injection, schedule: Q01DX009 (ip), vehicle: other): 87 % of control

N#CC(C(N)=O)c1ccccc1 (stereo unspecified)
T/C (dose: 25.0 mg/kg/injection, schedule: Q04DX003 (ip), vehicle: saline with Tween-80): 102 % of control
T/C (dose: 50.0 mg/kg/injection, schedule: Q04DX003 (ip), vehicle: saline with Tween-80): 108 % of control
T/C [7]: 97 % of control

CCC1=C(c2cc(Cl)c3ccccc3c2OCC(=O)O)OC(CC)(C(=O)c2cc(Cl)c3ccccc3c2OCC(=O)O)CC1 (stereo unspecified)
T/C [10]: 90 % of control
T/C [2]: 95 % of control
T/C (dose: 50.0 mg/kg/injection, schedule: Q04DX003 (ip), vehicle: saline sonified): 100 % of control
T/C [3]: 115 % of control
T/C [1]: 90 % of control

CN(C)c1ccc(-c2nc3ccccn3c2N)cc1
T/C (dose: 1.56 mg/kg/injection, schedule: Q01DX009 (ip), vehicle: saline): 105 % of control
T/C [11]: 96 % of control
T/C [12]: 113 % of control

C[Se]c1ncnc2c(C3OC(CO)C(O)C3O)[nH]nc12 (stereo unspecified)
T/C (dose: 0.5 mg/kg/injection, schedule: Q01DX009 (ip), vehicle: saline with Tween-80): 118 % of control
T/C (dose: 1.0 mg/kg/injection, schedule: Q01DX009 (ip), vehicle: saline with Tween-80): 90 % of control
T/C (dose: 2.0 mg/kg/injection, schedule: Q01DX009 (ip), vehicle: saline with Tween-80): 109 % of control
T/C (dose: 4.0 mg/kg/injection, schedule: Q01DX009 (ip), vehicle: saline with Tween-80): 100 % of control
T/C [12]: 114 % of control
T/C (dose: 8.0 mg/kg/injection, schedule: Q01DX009 (ip), vehicle: saline with Tween-80): 90 % of control
T/C (dose: 12.5 mg/kg/injection, schedule: Q01DX009 (ip), vehicle: saline): 98 % of control
T/C [13]: 98 % of control
T/C [14]: 92 % of control

O=C(CO)c1ccc([N+](=O)[O-])cc1
T/C [2]: 106 % of control

COc1cc2c(c(OC)c1OC)-c1ccc(OC)c(=O)cc1[C@@H](NC(=O)CF)CC2
T/C (dose: 0.09 mg/kg/injection, schedule: Q01DX009 (ip), vehicle: saline with Tween-80): 187 % of control
T/C (dose: 0.09 mg/kg/injection, schedule: Q01DX009 (ip), vehicle: saline): 188 % of control
T/C (dose: 0.18 mg/kg/injection, schedule: Q01DX009 (ip), vehicle: saline with Tween-80): 232 % of control
T/C (dose: 0.18 mg/kg/injection, schedule: Q01DX009 (ip), vehicle: saline): 257 % of control
T/C (dose: 0.37 mg/kg/injection, schedule: Q01DX009 (ip), vehicle: saline): 103 % of control
T/C (dose: 46.2 micrograms/kg/injection, schedule: Q01DX009 (ip), vehicle: saline with Tween-80): 158 % of control
T/C (dose: 185.0 micrograms/kg/injection, schedule: Q01DX009 (ip), vehicle: saline with Tween-80): 89 % of control
T/C (dose: 370.0 micrograms/kg/injection, schedule: Q01DX009 (ip), vehicle: saline with Tween-80): 247 % of control

C=C(C)C(=O)O[C@H]1[C@H]2[C@H](OC(=O)[C@H]2C)[C@H](O)[C@@H](C)[C@@H]2C=CC(=O)[C@]21C
T/C [11]: 102 % of control
T/C [12]: 110 % of control
T/C (dose: 25.0 mg/kg/injection, schedule: Q01DX009 (ip), vehicle: saline): 161 % of control

COc1cc[n+]([O-])cc1
T/C [5]: 95 % of control
T/C [6]: 95 % of control
T/C (dose: 400.0 mg/kg/injection, schedule: Q04DX003 (ip), vehicle: saline): 100 % of control

COc1ccccc1C(=O)NN
T/C (dose: 6.25 mg/kg/injection, schedule: Q04DX003 (ip), vehicle: saline): 100 % of control
T/C [13]: 110 % of control
T/C [14]: 105 % of control

COc1cc(C(Cc2ccnc3ccccc23)Cc2ccnc3ccccc23)ccc1N(C)C
T/C [7]: 91 % of control
T/C [8]: 104 % of control
T/C [9]: 115 % of control

Cc1ccc(/C=C2/C=C(c3ccccc3)OC2=O)cc1
T/C (dose: 50.0 mg/kg/injection, schedule: Q01DX009 (ip), vehicle: Klucel (hydroxypropylcellulose) (HPC)): 109 % of control
T/C [15]: 109 % of control
T/C [16]: 100 % of control
T/C [17]: 100 % of control
T/C [18]: 95 % of control
T/C [19]: 90 % of control

c1ccc(CC2(Cc3ccccc3)SCCS2)cc1
T/C [15]: 105 % of control
T/C [16]: 95 % of control
T/C [17]: 105 % of control
T/C [18]: 104 % of control
T/C (dose: 400.0 mg/kg/injection, schedule: Q01DX009 (ip), vehicle: Klucel (hydroxypropylcellulose) (HPC)): 115 % of control
T/C [19]: 104 % of control

CC1(c2cccs2)NC(=O)NC1=O (stereo unspecified)
T/C [10]: 104 % of control
T/C [2]: 96 % of control and 124 % of control
T/C [3]: 112 % of control and 111 % of control
T/C [7]: 100 % of control
T/C [4]: 101 % of control
T/C [8]: 104 % of control and 98 % of control
T/C [9]: 100 % of control and 90 % of control
